For assay [1], the system named is leukocyte migration into the CSF, pneumococcal meningitis. The experiment in a line: Rabbit model for meningitis: leukocyte migration into CSF. In kind it is in vivo, New Zealand white rabbits. The note with it: for reduction of CSF leukocytosis: intravenous injection; for mean leukocyte concentration/μl CSF / mean leukocyte density, cells/μl CSF: 7 hours after challenge; for leukocyte migration into the CSF (in words): 0.1 μM (10^-1 μM) i.v.; for leukocyte migration into CSF (in words): 10^-3 μM; for mean leukocyte density, cells/μl CSF: 1 ml of 1 μM peptide i.v. The text has this:
FIG. 20A and B, is a graphical representation of the anti-inflammatory activity of FHA, and FHA- and factor X-derived peptides in experimental bacterial meningitis. FIG. 20 A: FHA .largecircle.; Control .quadrature.. FIG. 20B: FHA peptide Ia .largecircle.; FHA peptide II .box-solid.; Factor X peptide II .tangle-solidup.; scrambled FHA peptide II .circle-solid..
FIG. 21 is a graphical representation of the effect of concentration of peptide on inhibition of leukocyte migration into the CSF. FHA peptide Ia .largecircle., FHA peptide II .box-solid.; Factor X peptide II .tangle-solidup.(n≥4 per group). Two animals received intravenous injections of 10^-1 μM, 2×10^-2 μM or 2×10^-3 μM FHA (.circle-solid.). Values are means±standarddeviations of leukocyte densities at 7 hours after bacterial challenge. The horizontal lines indicate the mean and standard deviation of CSF leukocyte density in 10 control animals which received phosphate buffered saline.
FIG. 22 is a scattergram representation of the effect of variation of the FHA peptide II structure on efficacy of inhibition,of meningeal inflammation. Values are leukocyte densities at 7 hours for individual rabbits. The horizontal lines indicate the mean and standard deviation of CSF leukocyte density in 10 control animals which received phosphate buffered saline.
FIG. 23 is a scattergram representation of the ability of acetyl/amide FHA peptide II to inhibit accumulation of leukocytes in the CSF. Two groups of 10 animals were challenged with pneumococci. One hour later, the animals received an intravenous injection of 10 nmoles of the acetyl/amide peptide (8.2 μg) or phosphate buffered saline. Leukocyte density in CSF was determined 6 hours after pneumococcal challenge.
FIG. 28 is a graphical representation of the effect of FHA peptides on pneumococci induced leukocyte migration into the CSF during pneumococcal meningitis. Data represent mean±standard deviation of leukocyte concentration/μl CSF of at least 4 animals per group. Time is hours after pneumococcal challenge. FHA peptide Ca (.quadrature.); FHA peptide Cb (.largecircle.); FHA peptide Cd (.tangle-solidup.); Control (.diamond-solid.);
FIG. 29 is a graphical representation of a comparison of anti-inflammatory activity of FHA and FHA peptides in experimental meningitis. FHA peptide Ca (.quadrature.); FHA peptide Cb (.largecircle.), ≥ four animals/group; FHA (.tangle-solidup.), two animals/group. Values are means ±standard deviations of leukocyte concentrations/μl CSF at 7 hours after bacterial challenge. The horizontal lines indicate the mean±standard deviation of leukocyte concentrations in 10 control animals which received phosphate buffered saline.
The rabbit model was performed according to an established protocol. Specific pathogen free, New Zealand white rabbits (2 kg; Hare Marland, Nutley, N.J.) were anesthetized with valium (2.5 mg/kg, subcutaneously, Hoffman-LaRoche, Nutley, N.J.), ketamine (35 mg/kg, intra-muscularly, Aveco, Fort Dodge, Iowa) and xylazine (5 mg/kg, intramuscularly, Miles Laboratories, Shawnee, Kans.) and a helmet of dental acrylic was affixed to the calvarium. Twenty four hours later, the rabbits were anesthetized with ethyl carbamate (1.75 g/kg; Aldrich Chemical Co., Milwaukee, Wis.) and pentobarbital (15 mg/kg; Abbott Laboratories, Abbott Park, Ill.) and placed in a stereotaxic frame. A spinal needle was introduced into the cisterna magna and 300 μl of CSF was withdrawn. The animals were challenged intracisternally with 10^8 heat killed, unencapsulated pneumococcus strain R6 introduced in 200 μl of saline (time 0). One hour later, animals were treated with peptides dissolved in 1 ml of saline by intravenous injection into the right marginal ear vein. The concentration of FHA was 0.1 μM and that of the FHA Ia, Factor X II, and scrambled FHA II peptides was 10 μM. For the acetyl-FHA II, acetyl/amide-FHA II, dimer of FHA II and trimer of FHA II peptides, the concentration was 10^-3 μM. […]

Assay [2] deals with transendothelial migration of human neutrophils through HUVEC monolayers. As to the kind of experiment: Transendothelial migration (TEM) of neutrophils. In kind it is cell-based. The note with it: for % Inhibition of TEM: peptides 0.01 mM, native FHA 1 μM, at least 3 experiments with 6 wells/peptide. The text has this:
FIG. 26 is a graphical representation of the inhibition of transendothelial migration of neutrophils by FHA peptide Ca, native FHA and mAb IB4 in a concentration dependent fashion. FHA peptide Ca (.largecircle.); intact FHA (.quadrature.); and mAb IB4 (.tangle-solidup.). Values represent mean±standard deviation of at least 3 experiments with 6 wells/peptide.
Transendothelial migration of neutrophils was studied based on a method described by Muller et al. (1992), J. Exp. Med. 176: 819-828. Briefly, human neutrophils suspended in ice-cold Hanks balanced salt solution (HBSS) containing Ca^++ and Mg^++ (Sigma) were fluoresceinated by adding 3.3 μl/ml 5-(and 6-)carboxyfluorescein diacetate, succinimidyl ester (CFSE, Molecular Probes Inc., Oreg.). After incubation for 30 mins. on ice, neutrophils were washed twice in cold HBSS with Ca^++ and Mg^++ and resuspended in cold Medium 199 (M199, Sigma) to a final concentration of 10^6 /ml. Human umbilical vein endothelial cells were subcultured at confluence into 96-well tissue culture plates (Becton Dickinson Labware, Lincoln Park, N.J.) that were coated with hydrated collagen gel (Vitrogen; Collagen Corporation, Palo Alto, Calif.) and fibronectin. Endothelial cells were stimulated with 10 ng/ml TNF-alpha for 4 hours and washed three times with warm M199. Neutrophils (10^6 /ml) were preincubated with 0.01 mM of peptides or with 1 μM of native FHA in M199 for 5 mins. on ice before they were added in 100 μl aliquots to the endothelial cells. For positive control, neutrophils were pre-incubated with 25 μg/ml anti-CD18 mAb IB4. For negative control, neutrophils were treated with 25 μg/ml mAb W6/32 against HLA class I antigen (Dako, Carpinteria, Calif.). The cells were incubated for 1 hour at 37° C., 5% CO2. To terminate transmigration, the supernatant fluid was aspirated and the wells were filled with warm 1 mM EGTA (Sigma) in HBSS without Ca and Mg. The plates were covered with plate sealers (Dynatech, Alexandria, Va.) and centrifuged in an inverted position at 250 g for 3 mins. at room temperature. To remove residual non-transmigrated neutrophils from the endothelial cells, monolayers were washed twice with 200 μl of warm Hanks solution without Ca and Mg. Fluorescence was quantitated using a fluorescence counter (Millipore Cytofluorm™ 2300). The percentage of transmigrated neutrophils was determined by comparing the amount of fluorescence of test wells with that measured in collagen- and fibronectin-coated wells without endothelial cells. […] Percent inhibition of transendothelial migration of neutrophils was calculated by comparing the number of transmigrated cells in wells containing neutrophils treated with peptide to neutrophils treated with M199 alone and arbitrarily set at 100% transendothelial migration (TEM).
The procedures for determining the neutrophil adherence to cultured endothelial cells and the transendothelial migration of neutrophils were identical with those of Example 9. Control values were the same as those shown in Example 9.

We go through 10 substances from patent publication US5792457A, “Antibody recognizing endothelial cell ligand for leukocyte CR3” (priority 1995, dated 1998).

“Also recorded” adds a separate entry of the source.

Consider GYDTKQEDG [Factor X II], for which the “reduction of CSF leukocytosis” value in assay [1] is more than 60%. For the same substance, the “mean leukocyte concentration/μl CSF” value in assay [1] (peptides 10 μM i.v.) is reported as 1622±521 /μl CSF. In assay [2], the “% Inhibition of TEM” value is 14 ± 9%.

On to Ac-ETKEVDG-NH2 [Acetyl/Amide-FHA II], for which the “leukocyte migration into the CSF” value in assay [1] (10 nmoles i.v., 6 hours post-pneumococcal challenge, n=10) is reported as 3011±684 cells/μl.

With “LGYQAK (UniProt P12255 1979-1984, looked up, fragment) [FHA Ia]”, the “reduction of CSF leukocytosis” value in assay [1] is listed as more than 60%. Further, the “mean leukocyte concentration/μl CSF” value in assay [1] (peptides 10 μM i.v.) is given as 1640±1210 /μl CSF. In addition, the “% Inhibition of TEM” value in assay [2] is listed as 23 ± 5%.

Consider “DEETVK [scrambled FHA II, reference compound]”, for which the “CSF leukocytosis (in words)” value in assay [1] (peptides 10 μM) is given as “ineffective”. For the same substance, in assay [1] (peptides 10 μM i.v.), the “mean leukocyte concentration/μl CSF” value was 6431±1380 /μl CSF. Further, the “% Inhibition of TEM” value in assay [2] was found to be 4 ± 5%.

With ETKEVDG [FHA II], the “leukocyte migration into the CSF (in words)” value in assay [1] (listed as FHA peptide II) was “statistically significantly different from control at p<0.02; also recorded: more potent anti-inflammatory activity than the corresponding Factor X peptide II”. Moreover, in assay [1], the “leukocyte migration into CSF (in words)” value was “ineffective” and the “reduction of CSF leukocytosis” value is more than 60%. Besides, the “mean leukocyte concentration/μl CSF” value in assay [1] (peptides 10 μM i.v.) is reported as 2645 ±1412 /μl CSF. Also, the “% Inhibition of TEM” value in assay [2] is 21 ± 10%.

Regarding GTLLLRNDALTENGTVTISA [FHA Cd], in assay [1] (1 μM peptide), the “leukocyte recruitment into the CSF (in words)” value is on record as “no effect on the leukocyte recruitment into the CSF”. The “% Inhibition of TEM” value in assay [2] came out at 6 ± 6%.

In the case of RGDPHQGVLAQGDIIMDAKG [FHA Ca], in assay [1], the “leukocyte migration into the CSF (in words)” value is given as “still significantly reduced leukocyte migration into the CSF” and the “mean leukocyte density, cells/μl CSF” value came to 2137±1498 cells/μl CSF. Also, in assay [2], the “concentration required for inhibition of TEM similar to native FHA (82±1% at 1 μM)” value stood at 10 µM and the “% Inhibition of TEM” value was found to be 83 ± 8%. The “% Inhibition of TEM” value in assay [2] (listed as FHA peptide Ca) was 83±8%.

Consider “native FHA: Filamentous hemagglutinin, 220kD surface associated protein of Bordetella pertussis (List Biologicals)”, for which, in assay [1] (listed as FHA), the “leukocyte migration into the CSF (in words)” value is listed as “statistically significantly different from control at p<0.05; also recorded: more potent anti-inflammatory activity than the corresponding Factor X peptide II”. The “leukocyte migration into CSF (in words)” value in assay [1] is given as “ineffective”. In addition, the “mean leukocyte concentration/μl CSF” value in assay [1] (FHA 25 μg, 0.1 μM i.v.) is 2096±450 /μl CSF. Further, in assay [1], the “reduction of CSF leukocytosis” value was more than 60%. Moreover, the results for the “% Inhibition of TEM” value in assay [2], in assay [2] (listed as FHA) and in assay [2] (listed as Intact FHA) were 82±1%, 82 ± 1% and 82±1%, respectively.

Turning to RADPHQGVLAQGDIIMDAKG [FHA Cb], in assay [1], the “leukocyte migration into the CSF (in words)” value is “ineffective at this dose” and the “mean leukocyte density, cells/μl CSF” value is given as 2788±1022 cells/μl CSF. In assay [2], the “% Inhibition of TEM” value was determined as 8 ± 9%.

In the case of AADPHQGVLAQGDIIMDAKG [FHA Cc], in assay [2], the “% Inhibition of TEM” value turned out to be 11 ± 11%.
